Test results published in patent US10597387B2, “Methods to treat lymphoplasmacytic lymphoma” (Dana-Farber Cancer Institute, Inc., priority 2013, dated 2020).

Key:
PYK2 = PYK2 (Homo sapiens (Human), UniProt Q14289); assay: KiNativ kinase profiling; type: binding; settings: Activation Loop, A375 cells, read-out: inhibition of kinase labeling
AurA = AurA (Homo sapiens (Human), UniProt O14965); assay: KiNativ kinase profiling; type: binding; settings: Lys2, A375 cells, read-out: inhibition of kinase labeling
MAP2K3 = MAP2K3 (Homo sapiens (Human), UniProt P46734); assay: KiNativ kinase profiling; type: binding; settings: Lys2, A375 cells, read-out: inhibition of kinase labeling
CDK2 = CDK2 (Homo sapiens (Human), UniProt P24941); assay: KiNativ kinase profiling; type: binding; settings: Lys2, A375 cells, read-out: inhibition of kinase labeling
RSK2 domain1 = RSK2 domain1 (Homo sapiens (Human), UniProt P51812); assay: KiNativ kinase profiling; type: binding; settings: Lys2, A375 cells, read-out: inhibition of kinase labeling
PKCi = PKCi (Homo sapiens (Human), UniProt P41743); assay: KiNativ kinase profiling; type: binding; settings: Lys2, A375 cells, read-out: inhibition of kinase labeling
BARK1 = BARK1 (Homo sapiens (Human), UniProt P25098); assay: KiNativ kinase profiling; type: binding; settings: Lys2, A375 cells, read-out: inhibition of kinase labeling
PIK3CB = PIK3CB (Homo sapiens (Human), UniProt P42338); assay: KiNativ kinase profiling; type: binding; settings: ATP, A375 cells, read-out: inhibition of kinase labeling
p38a = p38a (Homo sapiens (Human), UniProt Q16539); assay: KiNativ kinase profiling; type: binding; settings: Protein Kinase Domain, A375 cells, read-out: inhibition of kinase labeling
NEK6, NEK7 = assay: KiNativ kinase profiling; type: binding, Homo sapiens; settings: Lys2, 1 μM, A375 cells
RSK1 domain1 = RSK1 domain1 (Homo sapiens (Human), UniProt Q15418); assay: KiNativ kinase profiling; type: binding; settings: Lys2, A375 cells, read-out: inhibition of kinase labeling
LCK = LCK (Homo sapiens (Human), UniProt P06239); assay: KiNativ kinase profiling; type: binding; settings: Activation Loop, A375 cells, read-out: inhibition of kinase labeling
NEK9 = NEK9 (Homo sapiens (Human), UniProt Q8TD19); assay: KiNativ kinase profiling; type: binding; settings: Lys2, A375 cells, read-out: inhibition of kinase labeling
Erk2 = Erk2 (Homo sapiens (Human), UniProt P28482); assay: KiNativ kinase profiling; type: binding; settings: Lys2, A375 cells, read-out: inhibition of kinase labeling
GSK3B = GSK3B (Homo sapiens (Human), UniProt P49841); assay: KiNativ kinase profiling; type: binding; settings: Lys2, A375 cells, read-out: inhibition of kinase labeling
MAP2K1, MAP2K2 = assay: KiNativ kinase profiling; type: binding, Homo sapiens; settings: Lys2, 1 μM, A375 cells
CaMK4 = CaMK4 (Homo sapiens (Human), UniProt Q16566); assay: KiNativ kinase profiling; type: binding; settings: Lys2, A375 cells, read-out: inhibition of kinase labeling
MST1 = MST1 (Homo sapiens (Human), UniProt Q13043); assay: KiNativ kinase profiling; type: binding; settings: Lys1, A375 cells, read-out: inhibition of kinase labeling
PITSLRE = assay: KiNativ kinase profiling; type: binding, Homo sapiens; settings: Lys2, 1 μM, A375 cells
PKD2 = PKD2 (Homo sapiens (Human), UniProt Q9BZL6); assay: KiNativ kinase profiling; type: binding; settings: Lys1, A375 cells, read-out: inhibition of kinase labeling
NDR2 = NDR2 (Homo sapiens (Human), UniProt Q9Y2H1); assay: KiNativ kinase profiling; type: binding; settings: Lys2, A375 cells, read-out: inhibition of kinase labeling
BTK = BTK (Homo sapiens (Human), UniProt Q06187); assay: Invitrogen Select Screening kinase assay; type: biochemical; settings: in vitro
Text: The in vitro activity of the compounds described herein in inhibiting TAK1, HCK, and other kinases were obtained using an Invitrogen Select Screening assay as known in the art. The IC50 values determined from this assay are shown below.

MAP2K1 = MAP2K1 (Homo sapiens (Human), UniProt Q02750); assay: KiNativ kinase profiling; type: binding; settings: Lys2, A375 cells, read-out: inhibition of kinase labeling
TLK1 = TLK1 (Homo sapiens (Human), UniProt Q9UKI8); assay: KiNativ kinase profiling; type: binding; settings: Lys2, A375 cells, read-out: inhibition of kinase labeling
PIK3CD = PIK3CD (Homo sapiens (Human), UniProt O00329); assay: KiNativ kinase profiling; type: binding; settings: ATP, A375 cells, read-out: inhibition of kinase labeling
RSK1 domain2 = RSK1 domain2 (Homo sapiens (Human), UniProt Q15418); assay: KiNativ kinase profiling; type: binding; settings: Lys2, A375 cells, read-out: inhibition of kinase labeling
CK1g2 = CK1g2 (Homo sapiens (Human), UniProt P78368); assay: KiNativ kinase profiling; type: binding; settings: Lys2, A375 cells, read-out: inhibition of kinase labeling
MAST3 = MAST3 (Homo sapiens (Human), UniProt O60307); assay: KiNativ kinase profiling; type: binding; settings: Lys2, A375 cells, read-out: inhibition of kinase labeling
LKB1 = LKB1 (Homo sapiens (Human), UniProt Q15831); assay: KiNativ kinase profiling; type: binding; settings: Lys2, A375 cells, read-out: inhibition of kinase labeling
PFTAIRE1 = PFTAIRE1 (Homo sapiens (Human), UniProt O94921); assay: KiNativ kinase profiling; type: binding; settings: Lys1, A375 cells, read-out: inhibition of kinase labeling
CDK11, CDK8 = assay: KiNativ kinase profiling; type: binding, Homo sapiens; settings: Lys2, 1 μM, A375 cells
LOK = LOK (Homo sapiens (Human), UniProt O94804); assay: KiNativ kinase profiling; type: binding; settings: Lys2, A375 cells, read-out: inhibition of kinase labeling
BLK = BLK (Homo sapiens (Human), UniProt P51451); assay: KiNativ kinase profiling; type: binding; settings: Activation Loop, A375 cells, read-out: inhibition of kinase labeling
BRAF = BRAF (Homo sapiens (Human), UniProt P15056, V600E); assay: KiNativ kinase profiling; type: binding; settings: Lys2, A375 cells, read-out: inhibition of kinase labeling
IKKe, TBK1 = assay: KiNativ kinase profiling; type: binding, Homo sapiens; settings: Lys2, 1 μM, A375 cells
PLK1 = PLK1 (Homo sapiens (Human), UniProt P53350); assay: KiNativ kinase profiling; type: binding; settings: Lys1, A375 cells, read-out: inhibition of kinase labeling
FER = FER (Homo sapiens (Human), UniProt P16591); assay: KiNativ kinase profiling; type: binding; settings: Lys1, A375 cells, read-out: inhibition of kinase labeling
TLK2 = TLK2 (Homo sapiens (Human), UniProt Q86UE8); assay: KiNativ kinase profiling; type: binding; settings: Lys2, A375 cells, read-out: inhibition of kinase labeling
ROCK1, ROCK2 = assay: KiNativ kinase profiling; type: binding, Homo sapiens; settings: Lys2, 1 μM, A375 cells
SLK = SLK (Homo sapiens (Human), UniProt Q9H2G2); assay: KiNativ kinase profiling; type: binding; settings: Lys2, A375 cells, read-out: inhibition of kinase labeling

p38a, sequence (Q16539 whole entry, the tested form may be a part): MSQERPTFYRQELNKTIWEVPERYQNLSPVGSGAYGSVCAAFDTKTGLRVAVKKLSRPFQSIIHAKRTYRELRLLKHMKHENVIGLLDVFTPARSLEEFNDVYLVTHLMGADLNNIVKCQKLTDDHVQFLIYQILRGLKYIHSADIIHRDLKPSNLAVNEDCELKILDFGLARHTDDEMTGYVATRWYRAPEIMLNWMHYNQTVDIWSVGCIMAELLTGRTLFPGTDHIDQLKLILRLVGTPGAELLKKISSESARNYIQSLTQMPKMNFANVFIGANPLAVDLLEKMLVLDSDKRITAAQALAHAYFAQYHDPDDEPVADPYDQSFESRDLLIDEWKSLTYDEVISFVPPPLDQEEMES
LCK, sequence (P06239 whole entry): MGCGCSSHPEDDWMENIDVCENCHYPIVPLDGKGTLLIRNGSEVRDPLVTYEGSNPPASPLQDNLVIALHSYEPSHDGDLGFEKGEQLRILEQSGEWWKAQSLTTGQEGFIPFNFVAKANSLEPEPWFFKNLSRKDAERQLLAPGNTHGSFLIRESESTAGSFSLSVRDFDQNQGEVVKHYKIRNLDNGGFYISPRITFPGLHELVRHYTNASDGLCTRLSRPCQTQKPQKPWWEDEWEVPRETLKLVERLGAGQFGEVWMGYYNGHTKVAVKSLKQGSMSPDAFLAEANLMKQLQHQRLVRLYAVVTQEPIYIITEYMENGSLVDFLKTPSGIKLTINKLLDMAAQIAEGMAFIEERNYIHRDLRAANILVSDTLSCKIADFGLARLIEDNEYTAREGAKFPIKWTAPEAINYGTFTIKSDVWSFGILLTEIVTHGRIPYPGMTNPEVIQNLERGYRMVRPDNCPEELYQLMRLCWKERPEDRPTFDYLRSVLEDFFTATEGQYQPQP
PFTAIRE1, sequence (O94921 whole entry): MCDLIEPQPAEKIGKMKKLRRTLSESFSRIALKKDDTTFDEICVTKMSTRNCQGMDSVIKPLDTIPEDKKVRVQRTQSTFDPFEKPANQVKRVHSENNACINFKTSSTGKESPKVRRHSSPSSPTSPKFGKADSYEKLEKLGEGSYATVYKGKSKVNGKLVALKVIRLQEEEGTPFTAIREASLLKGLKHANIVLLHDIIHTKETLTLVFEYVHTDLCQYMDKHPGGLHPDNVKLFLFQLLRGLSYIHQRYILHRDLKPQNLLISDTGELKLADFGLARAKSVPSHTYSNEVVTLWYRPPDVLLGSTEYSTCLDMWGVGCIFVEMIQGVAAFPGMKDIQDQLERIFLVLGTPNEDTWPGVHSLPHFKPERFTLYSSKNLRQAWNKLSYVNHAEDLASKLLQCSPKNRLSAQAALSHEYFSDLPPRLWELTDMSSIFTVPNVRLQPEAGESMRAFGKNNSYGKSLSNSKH
CaMK4, sequence (Q16566 whole entry): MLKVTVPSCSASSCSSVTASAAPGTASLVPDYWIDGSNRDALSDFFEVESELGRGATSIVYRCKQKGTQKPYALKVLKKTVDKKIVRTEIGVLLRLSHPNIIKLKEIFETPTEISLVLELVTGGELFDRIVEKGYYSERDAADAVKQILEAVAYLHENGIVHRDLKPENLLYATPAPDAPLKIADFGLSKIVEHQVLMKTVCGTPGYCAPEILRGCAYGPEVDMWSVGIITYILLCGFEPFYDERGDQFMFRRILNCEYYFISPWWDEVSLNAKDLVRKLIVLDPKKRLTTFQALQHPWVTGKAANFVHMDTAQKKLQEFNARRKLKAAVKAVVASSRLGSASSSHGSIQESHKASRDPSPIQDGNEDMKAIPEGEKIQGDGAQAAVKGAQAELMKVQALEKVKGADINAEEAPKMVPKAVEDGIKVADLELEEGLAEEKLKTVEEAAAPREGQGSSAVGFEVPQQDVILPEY
PIK3CD, sequence (O00329 whole entry, the tested form may be a part): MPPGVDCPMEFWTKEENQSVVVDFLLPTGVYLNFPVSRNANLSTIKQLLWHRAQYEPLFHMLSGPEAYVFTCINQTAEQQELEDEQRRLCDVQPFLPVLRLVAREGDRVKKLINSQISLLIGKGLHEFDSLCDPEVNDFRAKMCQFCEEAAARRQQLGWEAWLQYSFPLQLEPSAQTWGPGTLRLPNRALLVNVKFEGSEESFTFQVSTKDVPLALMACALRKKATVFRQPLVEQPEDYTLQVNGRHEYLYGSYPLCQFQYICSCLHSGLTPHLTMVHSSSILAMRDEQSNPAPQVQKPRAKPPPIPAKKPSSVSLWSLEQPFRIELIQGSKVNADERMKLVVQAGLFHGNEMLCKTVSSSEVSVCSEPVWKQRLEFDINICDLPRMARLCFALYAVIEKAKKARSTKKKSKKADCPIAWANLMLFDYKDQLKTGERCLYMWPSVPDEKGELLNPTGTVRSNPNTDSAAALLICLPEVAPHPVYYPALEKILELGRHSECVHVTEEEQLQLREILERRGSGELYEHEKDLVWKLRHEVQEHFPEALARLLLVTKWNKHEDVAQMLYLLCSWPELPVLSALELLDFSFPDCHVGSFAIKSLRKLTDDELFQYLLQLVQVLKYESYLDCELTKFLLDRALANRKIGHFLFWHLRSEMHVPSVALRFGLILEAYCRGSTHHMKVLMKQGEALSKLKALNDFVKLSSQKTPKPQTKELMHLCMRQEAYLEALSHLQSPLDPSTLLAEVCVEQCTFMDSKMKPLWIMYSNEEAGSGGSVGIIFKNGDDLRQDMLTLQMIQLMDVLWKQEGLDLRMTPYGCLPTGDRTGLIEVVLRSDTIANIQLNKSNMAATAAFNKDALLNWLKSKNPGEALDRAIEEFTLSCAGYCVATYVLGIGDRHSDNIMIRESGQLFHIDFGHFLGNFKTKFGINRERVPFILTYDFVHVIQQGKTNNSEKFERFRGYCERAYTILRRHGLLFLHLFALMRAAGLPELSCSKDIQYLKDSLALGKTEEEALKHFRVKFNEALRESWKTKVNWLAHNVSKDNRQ
PIK3CD, sequence (P27986 whole entry partner, the tested form may be a part): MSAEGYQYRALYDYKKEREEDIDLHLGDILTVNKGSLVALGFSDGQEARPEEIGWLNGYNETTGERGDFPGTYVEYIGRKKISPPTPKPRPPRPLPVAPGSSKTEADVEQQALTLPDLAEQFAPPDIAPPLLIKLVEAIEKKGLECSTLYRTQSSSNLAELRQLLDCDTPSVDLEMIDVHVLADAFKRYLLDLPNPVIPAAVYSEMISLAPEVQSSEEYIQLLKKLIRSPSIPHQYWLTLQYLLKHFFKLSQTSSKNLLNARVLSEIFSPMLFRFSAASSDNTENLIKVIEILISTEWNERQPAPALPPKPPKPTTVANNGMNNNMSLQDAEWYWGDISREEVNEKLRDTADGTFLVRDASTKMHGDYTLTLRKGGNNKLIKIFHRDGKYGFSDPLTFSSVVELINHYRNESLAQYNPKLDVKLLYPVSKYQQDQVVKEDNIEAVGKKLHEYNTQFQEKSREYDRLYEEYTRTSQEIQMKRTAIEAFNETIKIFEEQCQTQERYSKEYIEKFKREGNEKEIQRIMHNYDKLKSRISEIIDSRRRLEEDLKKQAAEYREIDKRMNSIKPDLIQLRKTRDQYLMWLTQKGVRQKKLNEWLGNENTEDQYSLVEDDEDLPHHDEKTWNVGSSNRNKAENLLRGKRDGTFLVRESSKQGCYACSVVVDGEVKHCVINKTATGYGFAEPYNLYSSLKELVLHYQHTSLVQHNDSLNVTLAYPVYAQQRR
RSK1 domain1, sequence (Q15418 whole entry, the tested form may be a part): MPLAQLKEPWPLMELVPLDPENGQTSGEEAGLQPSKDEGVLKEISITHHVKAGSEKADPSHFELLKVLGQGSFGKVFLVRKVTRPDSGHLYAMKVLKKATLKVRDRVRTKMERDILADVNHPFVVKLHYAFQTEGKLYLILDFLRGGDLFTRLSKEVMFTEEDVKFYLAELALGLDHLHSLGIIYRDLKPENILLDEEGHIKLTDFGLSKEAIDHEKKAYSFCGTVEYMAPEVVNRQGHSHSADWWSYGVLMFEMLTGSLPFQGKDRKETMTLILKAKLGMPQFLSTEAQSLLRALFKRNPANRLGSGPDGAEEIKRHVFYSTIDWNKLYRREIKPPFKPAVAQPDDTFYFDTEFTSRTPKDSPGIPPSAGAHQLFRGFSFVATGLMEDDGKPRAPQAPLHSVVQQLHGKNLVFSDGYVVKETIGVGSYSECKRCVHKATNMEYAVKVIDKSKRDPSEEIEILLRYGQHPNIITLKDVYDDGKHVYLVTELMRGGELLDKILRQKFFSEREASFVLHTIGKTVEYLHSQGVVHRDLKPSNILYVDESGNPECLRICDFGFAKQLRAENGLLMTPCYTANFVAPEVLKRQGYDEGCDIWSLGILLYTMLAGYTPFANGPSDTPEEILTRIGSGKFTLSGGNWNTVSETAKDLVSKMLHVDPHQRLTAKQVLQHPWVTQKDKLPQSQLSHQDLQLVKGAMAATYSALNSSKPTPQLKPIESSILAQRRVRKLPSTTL
RSK1 domain2, sequence (Q15418 whole entry, the tested form may be a part): as above
MAP2K1, sequence (Q02750 whole entry): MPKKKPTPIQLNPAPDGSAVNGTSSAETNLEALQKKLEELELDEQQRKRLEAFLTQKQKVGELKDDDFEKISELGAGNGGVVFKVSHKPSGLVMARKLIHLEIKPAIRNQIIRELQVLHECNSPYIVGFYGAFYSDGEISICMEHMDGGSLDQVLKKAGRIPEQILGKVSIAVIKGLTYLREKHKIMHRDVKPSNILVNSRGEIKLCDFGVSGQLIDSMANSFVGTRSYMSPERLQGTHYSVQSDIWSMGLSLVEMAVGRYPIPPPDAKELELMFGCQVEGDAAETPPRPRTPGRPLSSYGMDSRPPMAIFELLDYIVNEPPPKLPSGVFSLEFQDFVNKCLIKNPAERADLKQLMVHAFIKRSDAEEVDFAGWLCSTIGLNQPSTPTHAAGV

Cc1ccc(C(=O)Nc2cccc(C(C)(C)C#N)c2)cc1NC(=O)c1cncc(-c2cccs2)c1 [I-6, N-(5-((3-(2-cyanopropan-2-yl)phenyl)carbamoyl)-2-methylphenyl)-5-(thiophen-2-yl)nicotinamide]
inhibition at 1 µM (PYK2): 5.4%
inhibition at 1 µM (AurA): -21.6%
inhibition at 1 µM (MAP2K3): 4.9%
inhibition at 1 µM (CDK2): 8.6%
inhibition at 1 µM (RSK2 domain1): 5%
inhibition at 1 µM (PKCi): -17.5%
inhibition at 1 µM (BARK1): -1.2%
inhibition at 1 µM (PIK3CB): 2.8%
inhibition at 1 µM (p38a): 85.1%
inhibition of kinase labeling (NEK6, NEK7): −3.7%
inhibition at 1 µM (RSK1 domain1): 33.3%
inhibition at 1 µM (LCK): 82.1%
inhibition at 1 µM (NEK9): -0.3%
inhibition at 1 µM (Erk2): -11%
inhibition at 1 µM (GSK3B): 15.9%
inhibition of kinase labeling (MAP2K1, MAP2K2): 4.1%
inhibition at 1 µM (CaMK4): 20.7%
inhibition at 1 µM (MST1): -26.3%
inhibition of kinase labeling (PITSLRE): 1.9%
inhibition at 1 µM (PKD2): -17.8%
inhibition at 1 µM (NDR2): -12.5%
IC50 (BTK): 1150 nM
inhibition at 1 µM (MAP2K1): 10.8%
inhibition at 1 µM (TLK1): 3.9%
inhibition at 1 µM (PIK3CD): -6.8%
inhibition at 1 µM (RSK1 domain2): -22.9%
inhibition at 1 µM (CK1g2): 10.8%
inhibition at 1 µM (MAST3): 18.9%
inhibition at 1 µM (LKB1): 4.9%
inhibition at 1 µM (PFTAIRE1): -31.3%
inhibition of kinase labeling (CDK11, CDK8): 20.7%
inhibition at 1 µM (LOK): 23.9%
inhibition at 1 µM (BLK): 68.8%
inhibition at 1 µM (BRAF): -20.3%
inhibition of kinase labeling (IKKe, TBK1): 24.8%
inhibition at 1 µM (PLK1): -5.4%
inhibition at 1 µM (FER): -9.6%
inhibition at 1 µM (TLK2): -18.8%
inhibition of kinase labeling (ROCK1, ROCK2): 12.7%
inhibition at 1 µM (SLK): -19.5%
